In ChEMBL document CHEMBL1641512, “Lyconadins D and E, and complanadine E, new Lycopodium alkaloids from Lycopodium complanatum” (Bioorg Med Chem, 2011) one finds fold change (FC) and Activity data, which are given here for six molecules.

Active and inactive are the calls of the source. The calls are words filed in the database; no cut-off is given here.

Holding throughout (format): cell-based
Experiment [1] deals with Beta-nerve growth factor (Homo sapiens) (UniProt P01138). Briefly: Induction of neurotrophic factor mRNA expression in human 1321N1 cells at 100 uM by RT-PCR analysis relative to beta-actin mRNA expression.
The target is the same in experiment [2]. Nature of the experiment: Induction of neurotrophic factor mRNA expression in human 1321N1 cells by RT-PCR analysis.
Experiment [3] shares this target. Nature of the experiment: Induction of neurotrophic factor mRNA expression in human 1321N1 cells at 100 uM by RT-PCR analysis.

Sequence of Beta-nerve growth factor (Homo sapiens) (P01138 122-241 limits assumed): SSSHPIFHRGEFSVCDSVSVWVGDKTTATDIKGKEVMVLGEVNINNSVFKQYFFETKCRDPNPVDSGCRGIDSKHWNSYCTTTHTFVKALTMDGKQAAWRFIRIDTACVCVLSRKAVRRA

Take `C[C@@H]1C[C@H]2Cc3ncc(-c4ccc5c(n4)C[C@@H]4C[C@@H](C)C[C@]56NCCC[C@H]46)cc3[C@]3(C1)NCCC[C@H]23`: in experiment [1], the fold change (FC) is 3.9. In experiment [2], the Activity result is “Dose-dependent effect”.
With `C[C@@H]1C[C@H]2C[C@H]3N[C@H](c4cnc5c(c4)[C@@]46C[C@H](C)C[C@@H](C5)[C@H]4CCCN6)CC[C@H]3[C@]3(C1)NCCC[C@H]23`, in experiment [1], the fold change (FC) turned out to be 2.8.
In turn, `C[C@@H]1C[C@H]2Cc3ncc(-c4ccc5c(n4)C(=O)[C@@H]4C[C@@H](C)C[C@]56NCCC[C@H]46)cc3[C@]3(C1)NCCC[C@H]23` yielded a fold change (FC) in experiment [1] of 2.3.
As for `C[C@@H]1C[C@H]2CC3=C(CC[C@H](c4cnc5c(c4)[C@@]46C[C@H](C)C[C@@H](C5)[C@H]4CCCN6)N3)[C@]3(C1)NCCC[C@H]23`, in experiment [1], the fold change (FC) stood at 2.4.
For `C[C@@H]1CC2=C3NC(=O)CC[C@]34C[C@]3(C1)[C@H]2C[C@@H]4CN3C`, the outcome in experiment [3] was inactive.
Regarding `C[C@@H]1CC2=C3NC(=O)CC[C@]34C[C@@]3(C1)NC[C@H]4C[C@@H]23`, the outcome in experiment [3] was inactive.
